Experimental data taken from ChEMBL document CHEMBL1122152, “Synthesis of pseudo cofactor analogues as potential inhibitors of the folate enzymes” (J Med Chem, 1982).
Values joined by “and” are separate entries in the source; they are usually repeats but may differ in a detail not shown here. Equal entries are not always repeated.

How the values were obtained:
Thymidylate synthase = experiment: Percent inhibition was measured against Thymidylate synthase (calf thymus) enzyme at 10E-4 M inhibitory concentration
[1] = molecular target: Dihydrofolate reductase (Bos taurus) (UniProt P00376); experiment: Percent inhibition was measured against Dihydrofolate reductase (bovine liver) enzyme at 10E-4 M inhibitory concentration
Sus scrofa [2] = species on record: Sus scrofa; experiment: Percent inhibition was measured against 5,10-Methylene Tetrahydrofolate Reductase (porcine kidney) enzyme at 10E-4 M inhibitory concentration
Columba livia [3] = experiment: Percent inhibition was measured against 5-amino-4-imidazolecarboxamide ribotide transformylase(pigeon liver) enzyme at 10E-4 M inhibitory concentration
Sus scrofa [4] = species on record: Sus scrofa; experiment: Percent inhibition was measured against methionine synthetase (porcine kidney)enzyme at 10E-4 M inhibitory concentration
[5] = tested on: formyltetrahydrofolate synthetase (Mus musculus); experiment: Percent inhibition was measured against formyl tetrahydrofolate synthase (L1210 tumor tissue) enzyme at 10E-4 M inhibitory concentration
Sus scrofa [6] = species on record: Sus scrofa; experiment: Percent inhibition was measured against Serine transhydroxymethylase (porcine liver) enzyme. at 10E-4 M inhibitory concentration
[7] = molecular target: T1, C-1-tetrahydrofolate synthase, cytoplasmic (Homo sapiens) (UniProt P11586); experiment: (§1) Percent inhibition was measured against 5,10-Methylene Tetrahydrofolate Cyclohydrolase (porcine liver) enzyme at 10E-4 M inhibitory concentration; conditions: Sus scrofa; target entry is the homologue from another species
T1 sequence (whole entry): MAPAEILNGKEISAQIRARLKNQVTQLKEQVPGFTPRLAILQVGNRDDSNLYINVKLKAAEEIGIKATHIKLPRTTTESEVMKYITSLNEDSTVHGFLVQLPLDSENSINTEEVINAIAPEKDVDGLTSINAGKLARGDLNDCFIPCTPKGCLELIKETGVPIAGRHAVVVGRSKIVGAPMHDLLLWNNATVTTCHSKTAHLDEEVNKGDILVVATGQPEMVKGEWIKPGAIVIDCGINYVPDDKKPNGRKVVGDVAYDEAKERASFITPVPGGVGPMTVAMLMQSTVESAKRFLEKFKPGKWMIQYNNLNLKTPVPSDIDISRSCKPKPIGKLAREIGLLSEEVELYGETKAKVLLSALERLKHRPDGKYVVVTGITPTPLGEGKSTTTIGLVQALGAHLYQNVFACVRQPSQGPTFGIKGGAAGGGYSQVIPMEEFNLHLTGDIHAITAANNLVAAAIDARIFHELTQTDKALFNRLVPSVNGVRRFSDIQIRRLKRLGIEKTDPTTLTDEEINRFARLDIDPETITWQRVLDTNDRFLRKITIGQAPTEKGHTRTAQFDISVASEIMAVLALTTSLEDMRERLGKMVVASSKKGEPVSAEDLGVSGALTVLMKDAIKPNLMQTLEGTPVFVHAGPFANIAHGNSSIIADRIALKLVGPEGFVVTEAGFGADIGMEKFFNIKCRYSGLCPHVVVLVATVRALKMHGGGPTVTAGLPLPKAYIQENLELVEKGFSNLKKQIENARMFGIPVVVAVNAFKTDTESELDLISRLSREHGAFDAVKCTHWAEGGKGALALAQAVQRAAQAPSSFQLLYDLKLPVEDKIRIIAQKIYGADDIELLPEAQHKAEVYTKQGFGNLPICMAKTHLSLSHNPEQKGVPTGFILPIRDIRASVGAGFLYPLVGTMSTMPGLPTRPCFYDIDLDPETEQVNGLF

[8] = Percent inhibition was measured against 5,10-Methylene Tetrahydrofolate Cyclohydrolase (L1210 tumor tissue) enzyme at 10E-6 M inhibitory concentration
[9] = molecular target: T1, C-1-tetrahydrofolate synthase, cytoplasmic (Homo sapiens); experiment: Percent inhibition was measured against 5,10-Methylene Tetrahydrofolate Cyclohydrolase (L1210 tumor tissue) enzyme at 10E-4 M inhibitory concentration
[10] = molecular target: T1, C-1-tetrahydrofolate synthase, cytoplasmic (Homo sapiens); experiment: as §1; conditions: Sus scrofa; target entry is the homologue from another species; remark: listed apart in the source
Sus scrofa [11] = species on record: Sus scrofa; experiment: Percent inhibition was measured against formyl tetrahydrofolate synthase (porcine liver) enzyme at 10E-4 M inhibitory concentration
Columba livia [12] = experiment: Percent inhibition was measured against glycinamide ribotide transformylase (pigeon liver) enzyme at 10E-4 M inhibitory concentration
Columba livia [13] = experiment: Percent inhibition was measured against 5-amino-4-imidazolecarboxamide ribotide transformylase(pigeon liver) enzyme at 10E-5 M inhibitory concentration
[14] = molecular target: T1, C-1-tetrahydrofolate synthase, cytoplasmic (Homo sapiens); experiment: Percent inhibition was measured against 5,10-Methylene Tetrahydrofolate Cyclohydrolase (porcine liver) enzyme at 10E-7 M inhibitory concentration; conditions: Sus scrofa; target entry is the homologue from another species
[15] = molecular target: T1, C-1-tetrahydrofolate synthase, cytoplasmic (Homo sapiens); experiment: Percent inhibition was measured against 5,10-Methylene Tetrahydrofolate Cyclohydrolase (porcine liver) enzyme at 10E-6 M inhibitory concentration; conditions: Sus scrofa; target entry is the homologue from another species
[16] = molecular target: T1, C-1-tetrahydrofolate synthase, cytoplasmic (Homo sapiens); experiment: Percent inhibition was measured against 5,10-Methylene Tetrahydrofolate Cyclohydrolase (L1210 tumor tissue) enzyme at 10E-5 M inhibitory concentration
[17] = molecular target: T1, C-1-tetrahydrofolate synthase, cytoplasmic (Homo sapiens); experiment: Percent inhibition was measured against 5,10-Methylene Tetrahydrofolate Cyclohydrolase (L1210 tumor tissue) enzyme at 10E-6 M inhibitory concentration; conditions: Sus scrofa
Sus scrofa [18] = species on record: Sus scrofa; experiment: Percent inhibition was measured against Serine transhydroxymethylase (porcine liver) enzyme at 10E-4 M inhibitory concentration
[19] = molecular target: T1, C-1-tetrahydrofolate synthase, cytoplasmic (Homo sapiens); experiment: Percent inhibition was measured against 5,10-Methylene Tetrahydrofolate Cyclohydrolase (A,porcine liver) enzyme.; conditions: Sus scrofa; target entry is the homologue from another species; concentration not given here
[20] = molecular target: Thymidylate synthase (Homo sapiens) (UniProt P04818); experiment: Percent inhibition was measured against Thymidylate synthase (calf thymus) enzyme; conditions: concentration not given here
Sus scrofa [21] = species on record: Sus scrofa; experiment: Percent inhibition was measured against 5,10-Methylene Tetrahydrofolate Reductase (porcine kidney) enzyme.; conditions: concentration not given here
Sus scrofa [22] = species on record: Sus scrofa; experiment: Percent inhibition was measured against formyl tetrahydrofolate synthase (porcine liver) enzyme.; conditions: concentration not given here
[23] = molecular target: T1, C-1-tetrahydrofolate synthase, cytoplasmic (Homo sapiens); experiment: Percent inhibition was measured against 5,10-Methylene Tetrahydrofolate Cyclohydrolase (porcine liver) enzyme.; conditions: Sus scrofa; target entry is the homologue from another species; concentration not given here
Sus scrofa [24] = species on record: Sus scrofa; experiment: Percent inhibition was measured against methionine synthetase (porcine kidney)enzyme.; conditions: concentration not given here
Columba livia [25] = experiment: Percent inhibition was measured against glycinamide ribotide transformylase (pigeon liver) enzyme.; conditions: concentration not given here
Columba livia [26] = experiment: Percent inhibition was measured against 5-amino-4-imidazolecarboxamide ribotide transformylase(pigeon liver) enzyme.; conditions: concentration not given here
Sus scrofa [27] = species on record: Sus scrofa; experiment: as §1
[28] = molecular target: T1, C-1-tetrahydrofolate synthase, cytoplasmic (Homo sapiens); experiment: Percent inhibition was measured against 5,10-Methylene Tetrahydrofolate Cyclohydrolase (porcine liver) enzyme at 10E-5 M inhibitory concentration; conditions: Sus scrofa; target entry is the homologue from another species

Sequence of Dihydrofolate reductase (Bos taurus) (P00376 whole entry, looked up): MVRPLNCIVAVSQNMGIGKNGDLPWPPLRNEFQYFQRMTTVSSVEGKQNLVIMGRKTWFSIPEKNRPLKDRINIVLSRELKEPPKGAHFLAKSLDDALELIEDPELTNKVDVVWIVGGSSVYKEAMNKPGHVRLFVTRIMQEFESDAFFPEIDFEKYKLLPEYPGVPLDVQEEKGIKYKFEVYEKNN
Sequence of Thymidylate synthase (Homo sapiens) (P04818 2-313 limits assumed): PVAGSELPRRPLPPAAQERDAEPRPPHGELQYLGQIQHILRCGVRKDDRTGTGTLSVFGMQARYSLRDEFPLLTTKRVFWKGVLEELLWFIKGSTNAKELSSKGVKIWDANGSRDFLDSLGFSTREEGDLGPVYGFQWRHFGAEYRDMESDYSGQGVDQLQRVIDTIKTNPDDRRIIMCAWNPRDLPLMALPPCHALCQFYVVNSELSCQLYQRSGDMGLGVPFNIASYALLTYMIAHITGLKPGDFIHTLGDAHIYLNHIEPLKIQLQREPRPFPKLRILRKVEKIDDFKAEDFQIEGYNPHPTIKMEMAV

| Compound | inhibition (Thymidylate synthase) | inhibition [1] | inhibition (Sus scrofa [2]) | inhibition (Columba livia [3]) | inhibition (Sus scrofa [4]) | inhibition [5] | inhibition (Sus scrofa [6]) | inhibition [7] | inhibition [9] | inhibition (Sus scrofa [11]) | inhibition (Columba livia [12]) | inhibition (Columba livia [13]) | inhibition [15] | inhibition [17] | also measured |
| --- | --- | --- | --- | --- | --- | --- | --- | --- | --- | --- | --- | --- | --- | --- | --- |
| N=C1N(c2ccc(C(=O)NC(CCC(=O)O)C(=O)O)cc2)CC2CNc3nc(N)[nH]c(=O)c3N12 (stereo not drawn) | 0% | 0% | 0% | 13% | 4% | 12% | 30% | 24% | 24% | 21% | 0% |  |  |  | inhibition [8]: 43%; inhibition [10]: 61% |
| Nc1nc2c(c(=O)[nH]1)N1C(=O)N(c3ccc(C(=O)NC(CCC(=O)O)C(=O)O)cc3)CC1CN2 (stereo not drawn) | 25% | 16% | 41% |  | 2% | 16% |  |  |  | 15% | 0% | 0% | 24% | 48% | inhibition [14]: 48%; inhibition [16]: 51%; inhibition (Sus scrofa [18]): 40% |
| Nc1nc2c(c(=O)[nH]1)N1C=[N+](c3ccc(C(=O)NC(CCC(=O)O)C(=O)O)cc3)CC1CN2 (stereo not drawn) |  | 15% |  |  |  |  | 10% |  |  |  |  |  |  |  | inhibition [19]: 9%; inhibition [20]: 0%; inhibition (Sus scrofa [21]): 40%; inhibition (Sus scrofa [22]): 0%; inhibition [23]: 0%; inhibition (Sus scrofa [24]): 22%; inhibition (Columba livia [25]): 0%; inhibition (Columba livia [26]): 19% |
| Nc1nc2c(c(=O)[nH]1)N1C(=S)N(c3ccc(C(=O)NC(CCC(=O)O)C(=O)O)cc3)CC1CN2 (stereo not drawn) | 8% | 30% | 55% |  | 5% | 13% | 0% |  | 12% |  | 11% | 37% | 24% | 50% | inhibition (Sus scrofa [27]): 24%; inhibition [28]: 27% |
| Nc1nc2c(c(=O)[nH]1)N1CCN(c3ccc(C(=O)NC(CCC(=O)O)C(=O)O)cc3)CC1CN2 (stereo not drawn) | 16% | 13% | 20% | 33% | 10% |  | 10% | 3% and 0% |  | 0% | 0% |  |  |  |  |
